The values that follow come from patent US7326418B2, “Identification of novel factors that block programmed cell death or apoptosis by targeting JNK” (University of Chicago, priority 2001, dated 2008).

In series [1] the target is T1, JNKK2/MKK7 (Homo sapiens, UniProt O14733, Q133P/Q94H).
T1 construct: expressed in transfected cells; host or cells: HEK-293, TNFα-treated or untreated; anti-FLAG immunoprecipitate
T1 sequence (O14733 1-401 Q94H/Q133P limits assumed): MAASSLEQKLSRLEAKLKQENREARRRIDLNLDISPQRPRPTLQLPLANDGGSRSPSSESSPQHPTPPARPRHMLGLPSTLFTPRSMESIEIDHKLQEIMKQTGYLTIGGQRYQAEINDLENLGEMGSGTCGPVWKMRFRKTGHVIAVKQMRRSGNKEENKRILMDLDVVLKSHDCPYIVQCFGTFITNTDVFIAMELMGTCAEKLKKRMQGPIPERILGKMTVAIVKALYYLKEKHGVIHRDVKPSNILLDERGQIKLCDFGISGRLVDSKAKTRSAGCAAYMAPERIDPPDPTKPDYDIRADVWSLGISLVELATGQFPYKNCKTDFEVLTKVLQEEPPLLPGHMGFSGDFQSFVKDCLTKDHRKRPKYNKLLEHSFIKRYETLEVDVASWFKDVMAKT
Briefly: Kinase assay of immunoprecipitated FLAG-JNKK2/MKK7 (GST-JNK1 substrate) pre-incubated with recombinant Gadd45β proteins or peptides. The class given is biochemical. The settings on record: active MKK7 from TNFα-activated 293 cells, GST-JNK1 substrate. As for the experimental part:
Next, the functional consequences, in vitro, of the physical interactions of Gadd45β with kinases in the JNK pathway were assessed. Murine and human, full-length Gadd45J3 proteins were purified from E. coli as GST-Gadd45β and His6-tagged Gadd45β (His6 disclosed as SEQ ID NO: 46), respectively, according to standard procedures. Prior to employing these proteins in in vitro assays, purity of all recombinant polypeptides was assured by >98%, by performing Coomassie blue staining of SDS polyacrylamide gels. Then, the ability of these proteins, as well as of control GST and His6-EF3 (His6 disclosed as SEQ ID NO: 46)proteins, to inhibit kinases in the JNK pathways was monitored in vitro. FLAG-tagged JNKK2, JNKK1, MKK3, and ASK1 were immunoprecipitated from transiently transfected 293 cells using anti-FLAG antibodies and pre-incubated for 10 minutes with increasing concentrations of recombinant proteins, prior to the addition of specific kinase substrates (i.e. GST-JNK1 with JNKK1 and JNKK2; GST-p38[…] with MKK3; GST-JNNK1 or GST-JNKK2 with ASK1). […] These findings indicate that, upon binding to Gadd45β, JNKK2 is effectively inactivated.
A question was whether Gadd45β inhibited active MKK7, in vitro. FLAG-MKK7 was immunoprecipitated from TNFα-treated or untreated 293 cells, and kinase assays were performed in the presence of purified His6-Gadd45β (His6 disclosed as SEQ ID NO: 46), GST-Gadd45β, or control proteins (FIG. 28d; see also FIG. 28g). […] Consistent with the in vivo findings (FIG. 27), the inhibitory activity of Gadd45β was specific. […] Indeed, the effects of Gadd45β on MKK7 phosphorylation by TNFα may be due inhibition of the MKK7 ability to auto-phoshorylate and/or to serve as substrate for upstream kinases. Altogether, the findings identify MKK7 as a target of Gadd45β, and of NF-[…]B, in the JNK cascade. Of interest, MKK7 is a selective activator of JNK, and its ablation abolishes JNK activation by TNFα. Thus, blockade of MKK7 is sufficient on its own to explain the effects of Gadd45β on JNK signaling—i.e. its specific and near-complete suppression of this signaling.
Active MKK7 was immunoprecipitated from TNFα-activated 293 cells and MKK7 kinase assays were performed using GST-JNK1 substrates and pure recombinant Gadd45β polypeptides (FIG. 37B; a schematic diagram representing the Gadd45βpolypeptides used is shown in FIG. 37A). […] MKK7 kinase assays were performed as in FIG. 37B, except that pure synthetic Gadd45, peptides (whose sequences are shown in FIG. 37C) were used instead of pure recombinant Gadd45β proteins. The amino acid region between amino acids 58 and 77 of Gadd45βis used for the Gadd45β-mediated inhibition of MKK7. […]

In series [2] the test system is 3DO-IκBαM cells. Kind of series: Survival of 3DO-IκBαM cells pretreated with MAPK inhibitors, then TNFα. The note with it: TNFα 25 U/ml 12 hours. Here is the method: FIG. 5a: Kinetics of JNK activation by TNKα (1000 U/ml) in 3DO—IκBαM and 3DO-Neo clones. Western blots with antibodies specific for phosphorylated (P) or total JNK (top and middle, respectively) and JNK kinase assays (bottom). […] CHX treatments were carried out for 30 minutes in addition to the indicated time. FIG. 5d: Survival of transfected RelA−/− MEFs following treatment with TNFα (1000 U/ml) plus CHX ([…]) for 10 hours. Plasmids were transfected as indicated along with pEGFP (Clontech). FIG. 5e: Survival of 3DO-IκBαM cells pretreated with MAPK inhibitors for 30 minutes and then incubated with either TNFα (25 U/ml) or PBS for an additional 12 hours. Inhibitors (Calbiochem) and concentrations are as indicated. In (d) and (e), values represent the mean of three independent experiments.
MEF and 3DO cells were cultured in 10% Fetal bovine serum-supplemented DMEM and RPMI, respectively. Transient transfections in RelA−/− MEF were performed by Superfect according to the manufacturer's instructions (Qiagen). After cytotoxic treatment with CHX (Sigma) plus or minus TNFα (Peprotech), adherent cells were counted and analyzed by FCM (FACSort, Becton Dickinson) to assess numbers of live GFP^+ cells. To generate 3DO stable lines, transfections were carried out by electroporatoration (BTX) and clones were grown in appropriate selection media containing Geneticin (Gibco) and/or Hygromycin (Invitrogen). […] Daunorubicin, PMA, Ionomycin, hydrogen peroxide, and sorbitol were from Sigma; Cisplatin (platinol AQ) was from VHAplus, PD98059 and SB202190 were from Calbiochem.

For series [3] the following is noted: in vivo, cited from earlier work.
The test system of series [4] is MDA-MD-231. The settings on record: for induction of apoptosis by NF-κB blockers: PGA1 100 μM 20 hours, CAPE 50 μg/ml 17 hours, parthenolide 2.5 μg/ml 4 hours.
In series [5] the test system is BT-20. The note with it: for induction of apoptosis by NF-κB blockers: PGA1 100 μM 20 hours, CAPE 50 μg/ml 17 hours, parthenolide 2.5 μg/ml 4 hours.
In series [6] the test system is JNK activation in 3DO cells. Kind of series: JNK activation by TNFα in 3DO cells (Western blots, JNK kinase assays). Type of series: cell-based. Here is the method: Plasmids were transfected as indicated along with pEGFP (Clontech). […] Inhibitors (Calbiochem) and concentrations are as indicated.
Northern blots were performed by standard procedures using 6 μg of total RNA. The EMSAs with the palindromic probes and the preparation of whole cell extracts were as previously described (Franzoso et al., 1992). For western blots, cell extracts were prepared either in a modified lysis buffer (50 mM Tris, pH 7.4, 100 mM NaCl, 50 mM NaF, 1 mM NaBo4, 30 mM pyrophosphate, 0.5% NP-40, and protease inhibitors (FIG. 1B; Boehringer Mannheim), in Triton X-100 buffer (FIG. 4A; Medema et al., 1997) or in a lysis buffer containing 1% NP-40 350 mM NaCl, 20 MM HEPES (pH 8.0), 20% glycerol, 1 mM MgCl2, 0.1 mM EGTA, 0.5 mM DTT, 1 mM Na3VO4, 50 mM NaF and protease inhibitors. Each time, equal amounts of proteins (ranging between 15 and 50 μg) were loaded and Western blots prepared according to standard procedures. Reactions were visualized by ECL (Amersham). Antibodies were as follows: IκBα, Bid, and β-actin from Santa Cruz Biotechnology; caspase-6, -7 and -9, phospho and total -p38, phosph and total -ERK, phospho and total -JNK from Cell Signaling Technology; caspase-8 from Alexis; Caspase-2 and -3 from R&D systems. The Gadd45β-specific antibody was generated against an N-Terminal peptide. Kinase assays were performed with recombinant GST-c-jun and anti-JNK antibodies (Pharmingen), (Lin et al., 1995).
In general terms: In western blotting, separated proteins are transferred to a membrane and probed.

Setting [7] is: concomitant treatment with PGA1, CAPE or parthenolide.

“Also recorded” adds a separate entry of the source. Counter-ions that a name gives are not always drawn. Peptide text beside a SMILES is read from it. * marks the point of attachment. Cbz = O=C(OCc1ccccc1)*; CH2F = FC*

As to “AIDEEEEDDIALQIHFTLIQSFCCDND [amino acids 60-86, positions 60-86 of Gadd45β]”, the “inhibition of MKK7 activity by Gadd45β-derived peptides / polypeptide regions” value in series [1] was “sufficient to also inhibit MKK7 activity”. With `COc1cccc(-c2cc(=O)c3ccccc3o2)c1N` [PD98059], the “antagonism of TNFα cytotoxicity” value in series [2] (30 min pretreatment) is “could not antagonize”.

In the case of `COc1cccc2c1C(=O)c1c(O)c3c(c(O)c1C2=O)C[C@@](O)([C@H](C)O)C[C@@H]3O[C@H]1C[C@H](N)[C@H](O)[C@H](C)O1` [daunorubicinol], the “half-life of active metabolite” value in series [3] is on record as “about 27 hr”. As for `Oc1c2ccccc2c2c3c(cccc13)N=N2` [SP600125], the “rescue from cytotoxicity induced by inhibition of NF-κB” value in series [4] (setting [7]) and in series [5] (setting [7]) was “can be rescued; also recorded: dramatically rescued” in each case. On to `C[C@@H]1C[C@@H]([C@H](O)CC2CC(=O)NC(=O)C2)C(=O)[C@@H](C)C1` [CHX, cycloheximide], for which the “JNK activation by agent alone” value in series [6] (3DO cells, CHX alone) is on record as “no effect”. The “down-regulation of TNFα-induced JNK” value in series [6] (parental 3DO cells, TNFα 1000 U/ml plus CHX 10 μg/ml) was “impaired”. For `COc1cccc2c1C(=O)c1c(O)c3c(c(O)c1C2=O)C[C@@](O)(C(C)=O)C[C@@H]3O[C@H]1C[C@H](N)[C@H](O)[C@H](C)O1` [daunorubicin, 5,12-Naphthacenedione, (8S-cis)-8-acetyl-10-[(3-amino-2,3,6-trideoxy-a-L-lyxo-hexanopyranosyl)oxy]-7,8,9,10-tetrahydro-6,8,11-trihydroxy-10-methoxy-, hydrochloride], in series [3], the oral absorption result is “poor”, the half-life of elimination result is “about 19 hr” and the “secreted into the bile” value was approximately 40%.

For the compound `CCCCC[C@H](O)/C=C/[C@H]1C=CC(=O)[C@@H]1CCCCCCC(=O)O` [prostaglandin A1], the “induction of apoptosis by NF-κB blockers” value in series [4] and in series [5] was “induced apoptosis rapidly” each time.

For the compound `COC(=O)C[C@H](NC(=O)[C@H](C)NC(=O)[C@@H](NC(=O)OCc1ccccc1)C(C)C)C(=O)CF` [zVAD-fik] (Cbz-Val-Ala-Asp(OMe)-CH2F), the “late (160 minutes, caspase-dependent) rise of JNK activation by TNFα” value in series [6] (IκBαM-Hygro 3DO clones) is reported as “could be prevented”. As for `N.N.[Cl][Pt][Cl]` [Cisplatin], the oral absorption entry in series [3] was “not absorbed orally”. In the case of `Oc1ccc(-c2nc(-c3ccncc3)c(-c3ccc(F)cc3)[nH]2)cc1` [SB202190], in series [2] (high concentrations, 50 μM), the “cell survival under TNFα” value is “dramatically enhanced cell survival; also recorded: rescues”. Besides, the “antagonism of TNFα cytotoxicity” value in series [2] (low concentrations, 5 μM and lower) was “could not antagonize”. Regarding `O=C(/C=C/c1ccc(O)c(O)c1)OCCc1ccccc1` [CAPE], the “induction of apoptosis by NF-κB blockers” value in series [4] and in series [5] was “induced apoptosis rapidly” each time.
